Assay type in all cases: cell-based
For experiment [1], the system named is Mannheimia haemolytica MH 10720 (154, BRD field isolate). The experiment in a line: MIC, broth-microdilution (CLSI VET01-A4), strain MH 10720. The conditions noted are these: Mannheimia haemolytica strain MH 10720, broth-microdilution; unit assumed. In outline:
(§1)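 MIC recorded as the lowest drug level giving no growth visible to the naked eye, from two-fold serial dilutions. Interpretation followed VET01-S3.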
On the technique in general: Dilution methods test growth across graded concentrations, often in twofold steps.

The test system of experiment [2] is Pasteurella multocida PM 12080 (IV102277-0093, BRD field isolate). Briefly: MIC, broth-microdilution (CLSI VET01-A4), strain PM 12080. To be noted: Pasteurella multocida strain PM 12080, broth-microdilution; unit assumed. In outline: as §1
The subject of experiment [3] is Mannheimia haemolytica MH 13093 (XB0472-6014.1, BRD field isolate). Briefly: MIC, broth-microdilution (CLSI VET01-A4), strain MH 13093. To be noted: Mannheimia haemolytica strain MH 13093, broth-microdilution; unit assumed. An outline of the steps: as §1
The subject of experiment [4] is Mannheimia haemolytica MH 13065 (XB0446-6003.9, BRD field isolate). The experiment in a line: MIC, broth-microdilution (CLSI VET01-A4), strain MH 13065. To be noted: Mannheimia haemolytica strain MH 13065, broth-microdilution; unit assumed. In outline: as §1
The subject of experiment [5] is Mannheimia haemolytica MH 12587 (1071, BRD field isolate, macrolide-resistance: erm+, E+). Briefly: MIC, broth-microdilution (CLSI VET01-A4), strain MH 12587. The conditions noted are these: Mannheimia haemolytica strain MH 12587, broth-microdilution; unit assumed. An outline of the steps:
as §1

For experiment [6], the system named is Mannheimia haemolytica MH 6357 (M7/2, reference strain, cattle infection strain). The experiment in a line: MIC, broth-microdilution (CLSI VET01-A4), strain MH 6357. The conditions noted are these: Mannheimia haemolytica strain MH 6357, broth-microdilution; unit assumed. In outline: as §1
The test system of experiment [7] is Pasteurella multocida PM 6267 (P 2225 (L386), reference strain, mouse infection strain). Briefly: MIC, broth-microdilution (CLSI VET01-A4), strain PM 6267. The conditions noted are these: Pasteurella multocida strain PM 6267, broth-microdilution; unit assumed. In outline: as §1
Experiment [8] concerns Pasteurella multocida PM 6391 (ATCC 43137, reference strain). The experiment in a line: MIC, broth-microdilution (CLSI VET01-A4), strain PM 6391. To be noted: Pasteurella multocida strain PM 6391, broth-microdilution; unit assumed. An outline of the steps: as §1
The test system of experiment [9] is Pasteurella multocida PM 10775 (080130003051, BRD field isolate). Briefly: MIC, broth-microdilution (CLSI VET01-A4), strain PM 10775. To be noted: Pasteurella multocida strain PM 10775, broth-microdilution; unit assumed. An outline of the steps: as §1
Experiment [10] deals with Mannheimia haemolytica MH 6374 (ATCC 33396, reference strain). The experiment in a line: MIC, broth-microdilution (CLSI VET01-A4), strain MH 6374. The conditions noted are these: Mannheimia haemolytica strain MH 6374, broth-microdilution; unit assumed. In outline: as §1

≈ marks a conversion by molar mass, not a printed value. Bounds are passed on as bounds.

As to `COCCCNCc1ccc(C#Cc2ccc(C(=O)NC(C(=O)NO)C(C)(C)[N+](=O)[O-])cc2)cc1` (stereo not shown) [Compound 285], the MIC MH 10720 in [1] is ≤ 0.1 µg/mL. For the same molecule, the MIC PM 12080 in [2] was found to be 0.8 µg/mL (≈ 1.66 µM). This molecule yielded an MIC MH 13093 in [3] of 3.1 µg/mL (≈ 6.42 µM). This molecule yielded an MIC MH 13065 in [4] of 1.6 µg/mL (≈ 3.32 µM). In [5], this molecule came in with an MIC MH 12587 of 6.3 µg/mL (≈ 13.1 µM). The same molecule had an MIC MH 6357 in experiment [6] of 1.6 µg/mL (≈ 3.32 µM). For the same molecule, the MIC PM 6267 in experiment [7] stood at 3.1 µg/mL (≈ 6.42 µM). This molecule also yielded an MIC PM 6391 in experiment [8] of 1.6 µg/mL (≈ 3.32 µM). In [9], the MIC PM 10775 was ≤ 0.1 µg/mL. In [10], this molecule displayed an MIC MH 6374 of 3.1 µg/mL (≈ 6.42 µM).

Turning to `CC(C)(C(NC(=O)c1ccc(C#Cc2ccc(CNCc3cccnc3)cc2)cc1)C(=O)NO)[N+](=O)[O-]` (stereo not shown) [Compound 286], the MIC MH 10720 in [1] is ≤ 0.1 µg/mL. Besides, in experiment [2], the MIC PM 12080 is ≤ 0.1 µg/mL. The MIC MH 13093 in [3] came to 0.8 µg/mL (≈ 1.6 µM). Moreover, in experiment [4], the MIC MH 13065 turned out to be 0.4 µg/mL (≈ 0.798 µM). In experiment [5], the MIC MH 12587 came to 1.6 µg/mL (≈ 3.19 µM). The molecule also registered an MIC MH 6357 in [6] of 0.4 µg/mL (≈ 0.798 µM). In experiment [7], this molecule gave an MIC PM 6267 of 0.8 µg/mL (≈ 1.6 µM). In addition, the MIC PM 6391 in experiment [8] was 0.8 µg/mL (≈ 1.6 µM). Besides, the MIC PM 10775 in experiment [9] is ≤ 0.1 µg/mL. In addition, in experiment [10], the MIC MH 6374 came to 0.8 µg/mL (≈ 1.6 µM).

For the molecule `CC(C)(C(NC(=O)c1ccc(C#Cc2ccc(CNCc3ccco3)cc2)cc1)C(=O)NO)[N+](=O)[O-]` (stereo not shown) [Compound 287], the MIC MH 10720 in [1] is ≤ 0.1 µg/mL. Besides, in [2], the MIC PM 12080 was ≤ 0.1 µg/mL. This molecule also yielded an MIC MH 13093 in [3] of 0.8 µg/mL (≈ 1.63 µM). The MIC MH 13065 in [4] amounted to 0.8 µg/mL (≈ 1.63 µM). This molecule also showed an MIC MH 12587 in experiment [5] of 1.6 µg/mL (≈ 3.26 µM). The molecule further registered an MIC MH 6357 in [6] of 0.4 µg/mL (≈ 0.815 µM). The same molecule returned an MIC PM 6267 in [7] of 0.8 µg/mL (≈ 1.63 µM). Further, the MIC PM 6391 in [8] came to 0.4 µg/mL (≈ 0.815 µM). In addition, the MIC PM 10775 in [9] was ≤ 0.1 µg/mL. Moreover, the MIC MH 6374 in [10] worked out at 0.8 µg/mL (≈ 1.63 µM).

In the case of `CC(C)(C(NC(=O)c1ccc(C#Cc2ccc(CNCC(F)(F)F)cc2)cc1)C(=O)NO)[N+](=O)[O-]` (stereo not shown) [Compound 288], the MIC MH 10720 in experiment [1] is ≤ 0.1 µg/mL. Also, the MIC PM 12080 in experiment [2] is ≤ 0.1 µg/mL. The same molecule returned an MIC MH 13093 in experiment [3] of 0.8 µg/mL (≈ 1.62 µM). In experiment [4], this molecule registered an MIC MH 13065 of 0.4 µg/mL (≈ 0.812 µM). In addition, the MIC MH 12587 in experiment [5] was determined as 0.8 µg/mL (≈ 1.62 µM). The molecule further yielded an MIC MH 6357 in experiment [6] of 0.4 µg/mL (≈ 0.812 µM). Also, the MIC PM 6267 in experiment [7] came out at 0.4 µg/mL (≈ 0.812 µM). Also, the MIC PM 6391 in experiment [8] is ≤ 0.1 µg/mL. Further, in experiment [9], the MIC PM 10775 is ≤ 0.1 µg/mL. Further, in experiment [10], the MIC MH 6374 turned out to be 0.8 µg/mL (≈ 1.62 µM).

For the molecule `CC(C)(C(NC(=O)c1ccc(C#Cc2ccc(CNCc3cccs3)cc2)cc1)C(=O)NO)[N+](=O)[O-]` (stereo not shown) [Compound 289], the MIC MH 10720 in [1] was ≤ 0.1 µg/mL. Besides, the MIC PM 12080 in [2] was ≤ 0.1 µg/mL. The molecule also registered an MIC MH 13093 in experiment [3] of 0.8 µg/mL (≈ 1.58 µM). The same molecule yielded an MIC MH 13065 in experiment [4] of 0.8 µg/mL (≈ 1.58 µM). The molecule further returned an MIC MH 12587 in experiment [5] of 1.6 µg/mL (≈ 3.16 µM). In [6], this molecule came in with an MIC MH 6357 of 0.4 µg/mL (≈ 0.79 µM). Besides, in [7], the MIC PM 6267 is 0.8 µg/mL (≈ 1.58 µM). Besides, the MIC PM 6391 in [8] is 0.4 µg/mL (≈ 0.79 µM). The same molecule had an MIC PM 10775 in experiment [9] of 0.4 µg/mL (≈ 0.79 µM). In [10], this molecule had an MIC MH 6374 of 0.8 µg/mL (≈ 1.58 µM).

As for `CC(C)(O)[C@H](NC(=O)c1ccc(C#Cc2ccc(CNC3CC3)s2)cc1)C(=O)NO` [Compound 290], in [1], the MIC MH 10720 was ≤ 0.1 µg/mL. Moreover, the MIC PM 12080 in [2] was ≤ 0.1 µg/mL. Also, the MIC MH 13093 in [3] was found to be 0.2 µg/mL (≈ 0.468 µM). Further, the MIC MH 13065 in [4] is ≤ 0.1 µg/mL. This molecule also had an MIC MH 12587 in [5] of 0.4 µg/mL (≈ 0.936 µM). Besides, the MIC MH 6357 in experiment [6] was ≤ 0.1 µg/mL. In experiment [7], the MIC PM 6267 is ≤ 0.1 µg/mL. In experiment [8], the MIC PM 6391 stood at 0.2 µg/mL (≈ 0.468 µM). Besides, the MIC PM 10775 in experiment [9] was ≤ 0.1 µg/mL. The MIC MH 6374 in [10] is ≤ 0.1 µg/mL.

Take `C=CCNCc1ccc(C#Cc2ccc(C(=O)N[C@H](C(=O)NO)C(C)(C)O)cc2)s1` [Compound 291]: the MIC MH 10720 in experiment [1] was ≤ 0.1 µg/mL. The MIC PM 12080 in [2] was ≤ 0.1 µg/mL. In experiment [3], this molecule gave an MIC MH 13093 of 0.4 µg/mL (≈ 0.936 µM). In experiment [4], this molecule displayed an MIC MH 13065 of 0.4 µg/mL (≈ 0.936 µM). For the same molecule, the MIC MH 12587 in [5] is 0.8 µg/mL (≈ 1.87 µM). The MIC MH 6357 in experiment [6] is ≤ 0.1 µg/mL. This molecule also yielded an MIC PM 6267 in experiment [7] of 0.8 µg/mL (≈ 1.87 µM). The same molecule came in with an MIC PM 6391 in [8] of 0.4 µg/mL (≈ 0.936 µM). The MIC PM 10775 in experiment [9] is ≤ 0.1 µg/mL. Also, the MIC MH 6374 in [10] was ≤ 0.1 µg/mL.
